In ChEMBL document CHEMBL5678816, “A Next-Generation TRK Kinase Inhibitor Overcomes Acquired Resistance to Prior TRK Kinase Inhibition in Patients with TRK Fusion-Positive Solid Tumors” (Cancer Discov, 2017):
The source made the active and inactive calls. No cut-off for these calls is given here.

Key:
[1] = target: Ephrin type-B receptor 2 (Homo sapiens) (UniProt P29323); assay: Inhibition of EphB2 (unknown origin) at 1 uM in presence of ATP relative to control; values are per cent of control
[2] = target: Protein kinase C eta type (Homo sapiens) (UniProt P24723); assay: Inhibition of PKCeta (unknown origin) at 1 uM in presence of ATP relative to control; values are per cent of control
Sequence of Protein kinase C eta type (Homo sapiens) (P24723 whole entry): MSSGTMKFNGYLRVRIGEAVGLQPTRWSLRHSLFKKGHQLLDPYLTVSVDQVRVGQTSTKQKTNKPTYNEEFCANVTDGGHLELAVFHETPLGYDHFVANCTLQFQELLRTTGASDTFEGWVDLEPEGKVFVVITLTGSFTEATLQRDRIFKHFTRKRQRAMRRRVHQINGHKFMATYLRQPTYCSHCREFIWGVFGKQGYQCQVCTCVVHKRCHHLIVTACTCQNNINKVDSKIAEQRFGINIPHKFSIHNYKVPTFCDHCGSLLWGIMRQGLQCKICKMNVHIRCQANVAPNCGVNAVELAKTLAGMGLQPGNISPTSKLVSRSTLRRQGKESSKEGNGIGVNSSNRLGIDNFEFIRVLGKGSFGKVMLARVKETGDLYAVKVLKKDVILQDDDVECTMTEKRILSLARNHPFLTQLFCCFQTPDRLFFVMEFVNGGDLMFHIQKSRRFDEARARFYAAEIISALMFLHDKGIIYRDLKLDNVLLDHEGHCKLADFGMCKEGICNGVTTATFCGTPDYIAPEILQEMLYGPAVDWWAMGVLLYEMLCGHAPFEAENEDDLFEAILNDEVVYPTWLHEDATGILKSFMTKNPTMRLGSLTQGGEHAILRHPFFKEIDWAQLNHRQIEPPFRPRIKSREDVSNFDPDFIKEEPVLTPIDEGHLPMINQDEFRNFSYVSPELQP

[3] = target: Mitogen-activated protein kinase 10 (Homo sapiens) (UniProt P53779); assay: Inhibition of JNK3 (unknown origin) at 1 uM in presence of ATP relative to control; values are per cent of control
[4] = target: G protein-coupled receptor kinase 6 (Homo sapiens) (UniProt P43250); assay: Inhibition of GRK6 (unknown origin) at 1 uM in presence of ATP relative to control; values are per cent of control
[5] = target: RAC-beta serine/threonine-protein kinase (Homo sapiens) (UniProt P31751); assay: Inhibition of AKT2 (unknown origin) at 1 uM in presence of ATP relative to control; values are per cent of control
[6] = target: Serine/threonine-protein kinase MRCK beta (Homo sapiens) (UniProt Q9Y5S2); assay: Inhibition of MRCKbeta (unknown origin) at 1 uM in presence of ATP relative to control; values are per cent of control
[7] = Cmax in adult patient with recurrent LMNA-NTRK1 rearranged colorectal cancer at 100 mg administered twice a day as powder-in-capsule or liquid formulation for 22 days by LC-MS/MS analysis; format: ADME; conditions: human, in vivo, oral, time 22 day
Homo sapiens [8] = species on record: Homo sapiens; assay: Inhibition of Abl-P (unknown origin) at 1 uM in presence of ATP relative to control; values are per cent of control
[9] = target: Mast/stem cell growth factor receptor Kit (Homo sapiens) (UniProt P10721); assay: Inhibition of KIT (unknown origin) at 1 uM in presence of ATP relative to control; values are per cent of control
Homo sapiens [10] = species on record: Homo sapiens; assay: Inhibition of MKK4_m (unknown origin) at 1 uM in presence of ATP relative to control; values are per cent of control
[11] = target: Serine/threonine-protein kinase NLK (Homo sapiens) (UniProt Q9UBE8); assay: Inhibition of NLK (unknown origin) at 1 uM in presence of ATP relative to control; values are per cent of control
Sequence of Serine/threonine-protein kinase NLK (Homo sapiens) (Q9UBE8 whole entry): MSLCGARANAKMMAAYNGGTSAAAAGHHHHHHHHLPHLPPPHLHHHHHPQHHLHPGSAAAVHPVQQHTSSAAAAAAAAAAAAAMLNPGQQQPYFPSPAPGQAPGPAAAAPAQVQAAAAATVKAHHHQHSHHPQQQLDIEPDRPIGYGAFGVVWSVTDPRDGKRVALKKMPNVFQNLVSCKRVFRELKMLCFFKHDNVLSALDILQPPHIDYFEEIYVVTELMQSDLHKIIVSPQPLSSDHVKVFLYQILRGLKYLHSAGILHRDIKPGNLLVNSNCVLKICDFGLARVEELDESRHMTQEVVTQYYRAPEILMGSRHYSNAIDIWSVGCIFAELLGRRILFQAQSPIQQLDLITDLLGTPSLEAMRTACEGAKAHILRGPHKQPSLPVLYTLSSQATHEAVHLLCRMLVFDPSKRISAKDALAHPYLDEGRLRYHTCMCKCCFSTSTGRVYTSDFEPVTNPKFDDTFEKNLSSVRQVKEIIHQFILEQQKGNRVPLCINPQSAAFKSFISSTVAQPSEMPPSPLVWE

[12] = target: Calcium/calmodulin-dependent protein kinase type 1D (Homo sapiens) (UniProt Q8IU85); assay: Inhibition of CAMK1d (unknown origin) at 1 uM in presence of ATP relative to control; values are per cent of control
Sequence of Calcium/calmodulin-dependent protein kinase type 1D (Homo sapiens) (Q8IU85 whole entry, looked up): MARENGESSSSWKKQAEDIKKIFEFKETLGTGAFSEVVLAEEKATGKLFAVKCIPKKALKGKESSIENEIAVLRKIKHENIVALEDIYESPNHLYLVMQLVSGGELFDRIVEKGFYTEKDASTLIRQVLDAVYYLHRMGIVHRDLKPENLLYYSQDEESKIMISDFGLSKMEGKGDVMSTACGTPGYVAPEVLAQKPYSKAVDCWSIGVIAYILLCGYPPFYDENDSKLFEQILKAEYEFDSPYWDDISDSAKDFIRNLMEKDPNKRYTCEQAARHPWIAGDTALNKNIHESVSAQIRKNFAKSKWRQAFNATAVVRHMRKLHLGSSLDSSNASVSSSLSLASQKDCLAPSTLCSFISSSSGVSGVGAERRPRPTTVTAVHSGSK

[13] = target: Protein kinase C zeta type (Homo sapiens) (UniProt Q05513); assay: Inhibition of PKCzeta (unknown origin) at 1 uM in presence of ATP relative to control; values are per cent of control
Sequence of Protein kinase C zeta type (Homo sapiens) (Q05513 whole entry): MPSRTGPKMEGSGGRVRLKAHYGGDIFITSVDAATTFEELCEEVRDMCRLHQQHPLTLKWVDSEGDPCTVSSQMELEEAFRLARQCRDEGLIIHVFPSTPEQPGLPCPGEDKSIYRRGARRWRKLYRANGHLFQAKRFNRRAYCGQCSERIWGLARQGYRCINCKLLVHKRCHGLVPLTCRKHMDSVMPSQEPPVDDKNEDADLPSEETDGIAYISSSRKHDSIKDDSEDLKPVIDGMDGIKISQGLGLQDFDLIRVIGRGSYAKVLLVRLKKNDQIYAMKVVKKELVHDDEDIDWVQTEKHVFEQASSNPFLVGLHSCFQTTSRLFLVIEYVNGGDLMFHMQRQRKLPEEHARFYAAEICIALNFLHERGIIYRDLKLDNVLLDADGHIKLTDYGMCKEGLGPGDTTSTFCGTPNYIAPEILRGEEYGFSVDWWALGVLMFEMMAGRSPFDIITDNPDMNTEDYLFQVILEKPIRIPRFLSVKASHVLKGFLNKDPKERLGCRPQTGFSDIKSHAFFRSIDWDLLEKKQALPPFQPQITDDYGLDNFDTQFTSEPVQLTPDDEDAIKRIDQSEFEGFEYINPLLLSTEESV

[14] = target: SRSF protein kinase 3 (Homo sapiens) (UniProt Q9UPE1); assay: Inhibition of MSSK1 (unknown origin) at 1 uM in presence of ATP relative to control; values are per cent of control
[15] = target: Tyrosine-protein kinase ABL2 (Homo sapiens) (UniProt P42684); assay: Inhibition of Abl2 (unknown origin) at 1 uM in presence of ATP relative to control; values are per cent of control
[16] = target: Serine/threonine-protein kinase DCLK2 (Homo sapiens) (UniProt Q8N568); assay: Inhibition of DCAMKL2 (unknown origin) at 1 uM in presence of ATP relative to control; values are per cent of control
Sequence of Serine/threonine-protein kinase DCLK2 (Homo sapiens) (Q8N568 whole entry): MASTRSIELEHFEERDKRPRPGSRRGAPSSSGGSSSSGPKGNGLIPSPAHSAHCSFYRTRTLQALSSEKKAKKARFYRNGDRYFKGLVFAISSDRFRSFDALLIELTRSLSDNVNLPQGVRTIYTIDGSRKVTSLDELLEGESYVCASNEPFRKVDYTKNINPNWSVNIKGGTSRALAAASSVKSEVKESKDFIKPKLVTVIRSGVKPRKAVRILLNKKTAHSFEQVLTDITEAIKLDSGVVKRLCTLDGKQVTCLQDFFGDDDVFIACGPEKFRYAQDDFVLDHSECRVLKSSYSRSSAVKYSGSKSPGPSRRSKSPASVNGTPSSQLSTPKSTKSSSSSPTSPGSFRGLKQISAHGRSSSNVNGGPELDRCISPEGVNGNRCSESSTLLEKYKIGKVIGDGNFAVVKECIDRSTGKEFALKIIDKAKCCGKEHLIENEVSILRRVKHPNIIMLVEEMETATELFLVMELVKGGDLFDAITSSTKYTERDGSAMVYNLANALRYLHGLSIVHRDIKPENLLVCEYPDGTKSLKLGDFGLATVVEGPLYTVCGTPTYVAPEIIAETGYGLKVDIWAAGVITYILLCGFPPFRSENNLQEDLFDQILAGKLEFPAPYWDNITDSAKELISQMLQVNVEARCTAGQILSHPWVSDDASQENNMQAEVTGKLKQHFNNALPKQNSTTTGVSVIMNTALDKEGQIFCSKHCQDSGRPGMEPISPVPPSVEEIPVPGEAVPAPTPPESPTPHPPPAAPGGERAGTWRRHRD

[17] = target: Dual specificity mitogen-activated protein kinase kinase 6 (Homo sapiens) (UniProt P52564); assay: Inhibition of MKK6 (unknown origin) at 1 uM in presence of ATP relative to control; values are per cent of control
[18] = target: CDK6/cyclin D3 (Homo sapiens) (UniProt P30281+Q00534); assay: Inhibition of CDK6/cyclinD3 (unknown origin) at 1 uM in presence of ATP relative to control; values are per cent of control
[19] = target: Activin receptor type-1B (Homo sapiens) (UniProt P36896); assay: Inhibition of ALK4 (unknown origin) at 1 uM in presence of ATP relative to control; values are per cent of control
Sequence of Activin receptor type-1B (Homo sapiens) (P36896 whole entry): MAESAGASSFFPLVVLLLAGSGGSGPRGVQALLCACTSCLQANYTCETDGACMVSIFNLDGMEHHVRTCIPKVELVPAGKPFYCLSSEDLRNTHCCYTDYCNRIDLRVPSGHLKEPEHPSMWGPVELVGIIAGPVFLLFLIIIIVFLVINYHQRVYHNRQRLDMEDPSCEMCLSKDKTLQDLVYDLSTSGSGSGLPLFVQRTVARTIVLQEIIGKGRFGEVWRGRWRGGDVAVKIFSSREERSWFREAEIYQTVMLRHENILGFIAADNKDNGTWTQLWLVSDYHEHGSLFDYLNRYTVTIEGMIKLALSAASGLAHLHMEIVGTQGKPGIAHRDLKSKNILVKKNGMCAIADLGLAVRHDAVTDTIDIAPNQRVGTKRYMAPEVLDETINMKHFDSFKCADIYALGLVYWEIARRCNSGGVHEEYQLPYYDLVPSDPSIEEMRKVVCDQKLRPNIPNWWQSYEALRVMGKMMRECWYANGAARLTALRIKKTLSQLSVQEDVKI

[20] = target: Serine/threonine-protein kinase ULK3 (Homo sapiens) (UniProt Q6PHR2); assay: Inhibition of ULK3 (unknown origin) at 1 uM in presence of ATP relative to control; values are per cent of control
Sequence of Serine/threonine-protein kinase ULK3 (Homo sapiens) (Q6PHR2 whole entry, the tested form may be a part): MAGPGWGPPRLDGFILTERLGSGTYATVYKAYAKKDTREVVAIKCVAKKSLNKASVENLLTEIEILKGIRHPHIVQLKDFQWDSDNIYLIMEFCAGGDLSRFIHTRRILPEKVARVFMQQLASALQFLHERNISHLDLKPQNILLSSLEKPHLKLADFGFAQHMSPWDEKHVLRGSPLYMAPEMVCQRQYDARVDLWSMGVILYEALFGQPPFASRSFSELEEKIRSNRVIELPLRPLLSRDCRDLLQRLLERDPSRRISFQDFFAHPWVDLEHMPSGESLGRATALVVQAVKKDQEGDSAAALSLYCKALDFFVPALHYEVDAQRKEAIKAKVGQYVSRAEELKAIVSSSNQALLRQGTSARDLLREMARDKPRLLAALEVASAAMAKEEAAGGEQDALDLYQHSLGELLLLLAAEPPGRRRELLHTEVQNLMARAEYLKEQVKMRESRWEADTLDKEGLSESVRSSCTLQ

KM12 = assay: Inhibition of cell proliferation in TPM3-NTRK1 fusion positive human KM12 cells incubated for 72 hrs by DAPI staining based analysis; format: functional; conditions: KM12, 72 h
[21] = target: Serine/threonine-protein kinase TAO2 (Homo sapiens) (UniProt Q9UL54); assay: Inhibition of TAO2 (unknown origin) at 1 uM in presence of ATP relative to control; values are per cent of control
K562 = assay: Inhibition of cell proliferation in human K562 cells upto 10 umol/L incubated for 72 hrs by DAPI staining based analysis; format: functional; conditions: dose <= 10.0 µmol/L
NIH3T3 = format: functional, organism-based; conditions: Mus musculus, dose 30-300 mg/kg, route po, time 9.0 day
[22] = target: Death-associated protein kinase 2 (Homo sapiens) (UniProt Q9UIK4); assay: Inhibition of DAPK2 (unknown origin) at 1 uM in presence of ATP relative to control; values are per cent of control
[23] = target: SRSF protein kinase 1 (Homo sapiens) (UniProt Q96SB4); assay: Inhibition of SRPK1 (unknown origin) at 1 uM in presence of ATP relative to control; values are per cent of control
BHT-101 = assay: Inhibition of cell proliferation in human BHT-101 cells upto 10 umol/L incubated for 72 hrs by DAPI staining based analysis; format: functional; conditions: dose <= 10.0 µmol/L
[24] = target: Eukaryotic elongation factor 2 kinase (Homo sapiens) (UniProt O00418); assay: Inhibition of eEF-2K (unknown origin) at 1 uM in presence of ATP relative to control; values are per cent of control

Sequence of Ephrin type-B receptor 2 (Homo sapiens) (P29323 whole entry): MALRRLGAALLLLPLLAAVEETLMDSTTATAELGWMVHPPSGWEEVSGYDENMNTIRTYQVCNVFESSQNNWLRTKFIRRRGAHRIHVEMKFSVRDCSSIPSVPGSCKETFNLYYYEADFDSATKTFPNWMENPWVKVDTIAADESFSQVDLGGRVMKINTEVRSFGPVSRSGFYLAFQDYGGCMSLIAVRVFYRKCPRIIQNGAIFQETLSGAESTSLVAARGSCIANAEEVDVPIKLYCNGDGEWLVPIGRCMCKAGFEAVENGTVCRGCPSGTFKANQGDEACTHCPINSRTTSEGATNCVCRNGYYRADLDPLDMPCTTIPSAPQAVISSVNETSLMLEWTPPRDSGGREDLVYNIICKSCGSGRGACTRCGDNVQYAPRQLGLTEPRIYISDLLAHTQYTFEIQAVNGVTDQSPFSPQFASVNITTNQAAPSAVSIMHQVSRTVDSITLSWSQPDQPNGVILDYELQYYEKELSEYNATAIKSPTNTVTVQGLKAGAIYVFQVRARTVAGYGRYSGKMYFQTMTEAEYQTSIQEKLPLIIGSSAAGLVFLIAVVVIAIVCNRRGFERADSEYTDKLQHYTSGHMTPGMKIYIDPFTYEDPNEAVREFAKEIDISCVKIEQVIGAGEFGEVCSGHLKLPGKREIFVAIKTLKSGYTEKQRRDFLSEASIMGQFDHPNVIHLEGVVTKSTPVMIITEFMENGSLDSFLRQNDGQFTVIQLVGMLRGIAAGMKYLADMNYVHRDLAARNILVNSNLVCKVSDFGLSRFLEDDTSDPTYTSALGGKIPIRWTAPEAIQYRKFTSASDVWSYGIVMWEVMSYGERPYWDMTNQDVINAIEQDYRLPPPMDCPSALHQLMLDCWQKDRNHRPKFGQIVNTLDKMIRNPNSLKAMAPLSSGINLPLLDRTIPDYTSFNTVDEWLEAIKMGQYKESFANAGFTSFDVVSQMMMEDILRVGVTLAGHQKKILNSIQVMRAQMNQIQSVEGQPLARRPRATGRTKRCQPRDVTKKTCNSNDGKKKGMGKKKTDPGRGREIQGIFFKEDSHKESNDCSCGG

- residual activity [1]: 81%
- residual activity [2]: 108%
- residual activity [3]: 109%
- residual activity [4]: 106%
- residual activity [5]: 121%
- residual activity [6]: 128%
- Cmax [7]: 800 ng/mL
- residual activity (Homo sapiens [8]): 87%
- residual activity [9]: 100%
- residual activity (Homo sapiens [10]): 108%
- residual activity [11]: 110%
- residual activity [12]: 116%
- residual activity [13]: 106%
- residual activity [14]: 122%
- residual activity [15]: 105%
- residual activity [16]: 140%
- residual activity [17]: 100%
- residual activity [18]: 110%
- residual activity [19]: 96%
- residual activity [20]: 95.5%
- residual activity [21]: 104%
- residual activity [23]: 104%
- residual activity [24]: 118%
Structure (SMILES): C[C@@H]1CCc2ncc(F)cc2[C@H]2CCCN2c2ccn3ncc(c3n2)C(=O)N1 [SELITRECTINIB]
- IC50 (KM12): ≤ 5 nM
- inhibition (K562): inactive
- Activity (NIH3T3): Active
- residual activity [22]: 94%
- inhibition (BHT-101): inactive
